Data set [1] can be described thus: Circular dichroism spectroscopy, percent helicity. Type of data set: physicochemical. The conditions noted are these: CD, TFE/water (1:1), 0.1 mg/ml, 20°C. Here is the method:
Peptides were dissolved in TFE/water (1:1, v/v, 0.1 mg/ml). CD data were recorded in 10-mm path length, a quartz cell at 20°C. Percent helicity was calculated by the following equation ([Wang et al., 2006]). α=[θ]222/[θ]max×100% [θ]222 is the molar ellipticity of 222 nm; [θ]max = (−44,000 + 250T) (1 − k/n), where k = 4, n is the numbers of amino acids, and T = 20°C.
A general note: Circular dichroism is widely used to follow secondary structure.

The next data set concerns U87. The conditions noted are these: read-out: IC50 U87; CCK-8, 48 h. Here is the method: (§1) MCF-7, HUH-7, U87, and Nthy-ori 3-1 cell lines were used to test cell viability. All the cell lines were cultured in a humid environment at 37°C with 5% CO2. The anticancer activity of B1 and its derivatives were evaluated by the CCK-8 reagent. All peptides tested were dissolved in DMSO and finally added to each well in 1‰ volume. The cells were seeded in a 96-well plate at a number of 5 × 10^3 cells per well. After overnight incubation, they were administered with different concentrations of peptides. Ten percent CCK-8 solution without FBS was added to each well after 48 h. After incubation at 37°C for 30 min, the optical density (OD) at 450 nm was recorded with a microplate reader ([Deng et al., 2015]).

For a further data set, the system named is MCF-7. The conditions noted are these: read-out: IC50 MCF-7; CCK-8, 48 h. Here is the method: as §1
In another data set the test system is HUH-7. The note with it: read-out: IC50 HUH-7; CCK-8, 48 h. Here is the method:
as §1

A further data set relates to rabbit red blood cells. The note with it: 4% rabbit red blood cells, 1 h, 37°C. Here is the method: Two hundred microliters of 4% rabbit red blood cells in a 96-well plate was added different concentrations of peptides. After 1 h of incubation at 37°C and following centrifugation, the release of hemoglobin was monitored by the absorbance at 450 nm of supernatant. Zero hemolysis was determined without adding any other reagents, and 100% hemolysis was determined in 10% Triton X-100. Hemolysis percentage hemolysis was calculated as: (Apeptide − Ablank)/(ATriton − Ablank) × 100%. All hemolysis determinations were conducted in three repeated experiments ([Deng et al., 2015]).

A further data set has as its target α-chymotrypsin (Bos taurus, UniProt P00766). Description: in vitro. The conditions noted are these: for Degradation during protease exposure: 1 h. Here is the method: Peptides in DMSO solution (1 mM) was mixed with α-chymotrypsin in PBS buffer (0.5 ng/μl) containing 2 mM CaCl2 and incubated at 37°C. The percentage of peptide was measured by HPLC at 0, 5, 10, 20, 30, and 60 min([Wang et al., 2020]).

[2] abbreviates: α-chymotrypsin (0.5 ng/μl) in PBS buffer.

Bridge positions count the residues as written; N and C are the ends. Square brackets hold non-standard residues; d marks the D form. Ends that are not written are not given here. Peptide text beside a SMILES is read from it. R8 = C=CCCCCCC[C@@](C)(N)C(=O)O; S5 = C=CCCC[C@](C)(N)C(=O)O

As for `CC(C)C[C@@H]1NC(=O)[C@H](CCCCN)NC(=O)[C@@](C)(NC(=O)[C@H](Cc2ccccc2)NC(=O)[C@H](Cc2ccccc2)NC(=O)[C@H](CCCCN)NC(=O)[C@H](CCCCN)NC(=O)[C@H](Cc2ccccc2)NC(=O)[C@H](CCCNC(=N)N)NC(=O)[C@H](CCCCN)NC(=O)[C@@H](N)C(C)C)CCCC=CCCC[C@@](C)(C(=O)N[C@@H](CC(C)C)C(=O)N[C@H](C(N)=O)C(C)C)NC(=O)[C@H](CCCCN)NC1=O` [B1-L-4, VKRFKKFFS5KLKS5LV-NH2] (H-VKRFKKFF[S5]KLK[S5]LV-NH2; staple 9-13; N-terminus assumed), in data set [1], the “Helicity (%)” value was found to be 35%. Moreover, the IC50 amounted to 17.9 ± 3.23 µM in the data set on U87, 15.2 ± 1.02 µM with MCF-7 and 13.4 ± 1.92 µM in the data set on HUH-7. Also, the “HC50, half hemolysis concentration” value in the data set on rabbit red blood cells is over 80 µM. This compound also had a half-life at α-chymotrypsin (setting [2]) of over 60 min.
For `CC(C)C[C@H](NC(=O)[C@H](CCCCN)NC(=O)[C@]1(C)CCCC=CCCCCCC[C@@](C)(NC(=O)[C@@H](N)C(C)C)C(=O)N[C@@H](CCCNC(=N)N)C(=O)N[C@@H](Cc2ccccc2)C(=O)N[C@@H](CCCCN)C(=O)N[C@@H](CCCCN)C(=O)N[C@@H](Cc2ccccc2)C(=O)N[C@@H](Cc2ccccc2)C(=O)N1)C(=O)N[C@@H](CCCCN)C(=O)N[C@@H](CCCCN)C(=O)N[C@@H](CC(C)C)C(=O)N[C@H](C(N)=O)C(C)C` [B1-L-5, VR8RFKKFFS5KLKKLV-NH2] (H-V[R8]RFKKFF[S5]KLKKLV-NH2; staple 2-9; N-terminus assumed), the “Helicity (%)” value in data set [1] came to 24.8%. Also, the half-maximal inhibitory concentration (IC50) in the data set on U87 was 14.3 ± 2.35 µM; with MCF-7, 14 ± 0.73 µM; with HUH-7, 13.8 ± 1.53 µM. Moreover, the “HC50, half hemolysis concentration” value in the data set with rabbit red blood cells is over 80 µM. The same compound returned a half-life at α-chymotrypsin (setting [2]) of over 60 min.
On to `CC(C)C[C@H](NC(=O)[C@H](CCCCN)NC(=O)[C@H](CCCNC(=N)N)NC(=O)[C@H](Cc1ccccc1)NC(=O)[C@H](Cc1ccccc1)NC(=O)[C@]1(C)CCC/C=C\CCC[C@](C)(NC(=O)[C@@H](N)C(C)C)C(=O)N[C@@H](CCCNC(=N)N)C(=O)N[C@@H](Cc2ccccc2)C(=O)N[C@@H](CCCCN)C(=O)N1)C(=O)N[C@@H](CCCCN)C(=O)N[C@@H](CCCCN)C(=O)N[C@@H](CC(C)C)C(=O)N[C@H](C(N)=O)C(C)C` [B1-L-1, VS5RFKS5FFRKLKKLV-NH2] (H-V[S5]RFK[S5]FFRKLKKLV-NH2; staple (Z) 2-6), for which the “Helicity (%)” value in data set [1] is reported as 47.2%. Also, the half-life on α-chymotrypsin (α-chymotrypsin) was over 60 min.
For the compound “VKRFKKFFRKLKKLV-NH2 [B1-Leu, VKRFKKFFRKLKKLV-NH2]”, the “Helicity (%)” value in data set [1] worked out at 23.5%. In addition, the IC50 turned out to be 16.2 ± 3.32 µM in the data set with U87, 13.4 ± 0.53 µM with MCF-7 and 11.8 ± 0.72 µM in the data set with HUH-7. For the same compound, in the data set with rabbit red blood cells, the “HC50, half hemolysis concentration” value is over 80 µM. Moreover, the half-life on α-chymotrypsin (setting [2]) is 8.5 min. Moreover, the “Degradation during protease exposure” value on α-chymotrypsin (α-chymotrypsin) is on record as “completely degraded”.
Take “VKRFKKFFRKLKKSV-NH2 [B1, VKRFKKFFRKLKKSV-NH2, reference compound]”: the “Helicity (%)” value in data set [1] is recorded as 8.9%. The IC50 in the data set on U87, in the data set with MCF-7 and in the data set on HUH-7 was over 50 µM each time. Moreover, the “HC50, half hemolysis concentration” value with rabbit red blood cells is over 80 µM. At α-chymotrypsin (setting [2]), this compound had a half-life of 8.3 min. The “Degradation during protease exposure” value at α-chymotrypsin (α-chymotrypsin) is given as “completely degraded”.
With `CC(C)C[C@H](NC(=O)[C@H](CCCCN)NC(=O)[C@H](CCCCN)NC(=O)[C@H](CC(C)C)NC(=O)[C@]1(C)CCCC=CCCC[C@](C)(NC(=O)[C@H](CCCCN)NC(=O)[C@H](Cc2ccccc2)NC(=O)[C@H](CCCNC(=N)N)NC(=O)[C@H](CCCCN)NC(=O)[C@@H](N)C(C)C)C(=O)N[C@@H](Cc2ccccc2)C(=O)N[C@@H](Cc2ccccc2)C(=O)N[C@@H](CCCNC(=N)N)C(=O)N1)C(=O)N[C@H](C(N)=O)C(C)C` [B1-L-3, VKRFKS5FFRS5LKKLV-NH2] (H-VKRFK[S5]FFR[S5]LKKLV-NH2; staple 6-10; N-terminus assumed), the “Helicity (%)” value in data set [1] stood at 37%. In addition, the IC50 in the data set on U87 turned out to be 3.59 ± 1.2 µM; with MCF-7, 5.48 ± 0.89 µM; in the data set with HUH-7, 5.96 ± 0.54 µM. In the data set on rabbit red blood cells, the “HC50, half hemolysis concentration” value is over 80 µM. At α-chymotrypsin (setting [2]), this compound came in with a half-life of over 60 min.
Turning to `CC(C)C[C@H](NC(=O)[C@H](CCCCN)NC(=O)[C@]1(C)CCCC=CCCC[C@](C)(NC(=O)[C@H](Cc2ccccc2)NC(=O)[C@H](CCCNC(=N)N)NC(=O)[C@H](CCCCN)NC(=O)[C@@H](N)C(C)C)C(=O)N[C@@H](CCCCN)C(=O)N[C@@H](Cc2ccccc2)C(=O)N[C@@H](Cc2ccccc2)C(=O)N1)C(=O)N[C@@H](CCCCN)C(=O)N[C@@H](CCCCN)C(=O)N[C@@H](CC(C)C)C(=O)N[C@H](C(N)=O)C(C)C` [B1-L-2, VKRFS5KFFS5KLKKLV-NH2] (H-VKRF[S5]KFF[S5]KLKKLV-NH2; staple 5-9; N-terminus assumed), the “Helicity (%)” value in data set [1] was 35.5%. In addition, the figures for the IC50 in the data set with U87, in the data set on MCF-7 and in the data set with HUH-7 were 8.86 ± 1.43 µM, 6.59 ± 0.42 µM and 6.18 ± 0.63 µM, respectively. In addition, in the data set with rabbit red blood cells, the “HC50, half hemolysis concentration” value is over 80 µM. Moreover, the half-life at α-chymotrypsin (setting [2]) was over 60 min.
For the compound `CC(C)C[C@@H]1NC(=O)[C@H](CCCCN)NC(=O)[C@H](CCCNC(=N)N)NC(=O)[C@H](Cc2ccccc2)NC(=O)[C@H](Cc2ccccc2)NC(=O)[C@](C)(NC(=O)[C@H](CCCCN)NC(=O)[C@H](Cc2ccccc2)NC(=O)[C@H](CCCNC(=N)N)NC(=O)[C@H](CCCCN)NC(=O)[C@@H](N)C(C)C)CCCCCCC=CCCC[C@@](C)(C(=O)N[C@@H](CC(C)C)C(=O)N[C@H](C(N)=O)C(C)C)NC(=O)[C@H](CCCCN)NC1=O` [B1-L-7, VKRFKR8FFRKLKS5LV-NH2] (H-VKRFK[R8]FFRKLK[S5]LV-NH2; staple 6-13; N-terminus assumed), the “Helicity (%)” value in data set [1] is recorded as 31.6%. Further, the figures for the IC50 with U87, with MCF-7 and in the data set on HUH-7 were 12.7 ± 1.63 µM, 13.4 ± 1.22 µM and 7.49 ± 1.2 µM, respectively. In the data set on rabbit red blood cells, the “HC50, half hemolysis concentration” value is over 80 µM. The half-life at α-chymotrypsin (setting [2]) is over 60 min.
For `CC(C)C[C@H](NC(=O)[C@H](CCCCN)NC(=O)[C@]1(C)CCCC=CCCCCCC[C@@](C)(NC(=O)[C@H](Cc2ccccc2)NC(=O)[C@H](CCCNC(=N)N)NC(=O)[C@H](CCCCN)NC(=O)[C@@H](N)C(C)C)C(=O)N[C@@H](CCCCN)C(=O)N[C@@H](Cc2ccccc2)C(=O)N[C@@H](Cc2ccccc2)C(=O)N[C@@H](CCCNC(=N)N)C(=O)N[C@@H](CCCCN)C(=O)N[C@@H](CC(C)C)C(=O)N1)C(=O)N[C@H](C(N)=O)C(C)C` [B1-L-6, VKRFR8KFFRKLS5KLV-NH2] (H-VKRF[R8]KFFRKL[S5]KLV-NH2; staple 5-12; N-terminus assumed), the “Helicity (%)” value in data set [1] was 39.8%. Besides, the figures for the IC50 in the data set on U87, with MCF-7 and with HUH-7 were 4.58 ± 0.93 µM, 5.15 ± 1.04 µM and 5.89 ± 0.43 µM, respectively. Moreover, the “HC50, half hemolysis concentration” value in the data set with rabbit red blood cells was over 80 µM. In addition, the half-life at α-chymotrypsin (setting [2]) was determined as 55.3 min.

The term IC50 denotes the concentration needed to halve the response being measured. One may read the half-life as the time in which the quantity being followed falls by half. The low end stands for rapid decline, the high end for slow decline.

The values are drawn from publication PMC9021566, “Design, Synthesis, and Antitumor Activity Study of All-Hydrocarbon-Stapled B1-Leu Peptides” (Frontiers in Chemistry, 2022).
